# Assay results as given in patent EP2875815A1, “N'-(2-(3-oxobenzo[d]isothiazol-2(3h)-yl)acetyl)adamantane-1-carbohydrazide as a novel inhibitor for staphylococcus aureus sortase a” (Latvian Biomedical Research and Study Centre, priority 2013, dated 2015).
# Read-outs that look alike come from different tables or passages of the source.
# Experiments:
# S. aureus sortase A = molecular target: T1, S. aureus sortase A (Staphylococcus aureus, UniProt Q2FV99); assay: SrtA enzyme FRET inhibition assay (recombinant sortase A, FRET peptide substrate with LPETG motif); assay type: biochemical; conditions: SrtA inhib. concentration, means ±SD (n = 5)
# T1 construct: expressed with an N-terminal deletion of 59 amino acid residues (SrtAΔNS9, residues 60-206); made in house
# T1 sequence (Q2FV99 60-206): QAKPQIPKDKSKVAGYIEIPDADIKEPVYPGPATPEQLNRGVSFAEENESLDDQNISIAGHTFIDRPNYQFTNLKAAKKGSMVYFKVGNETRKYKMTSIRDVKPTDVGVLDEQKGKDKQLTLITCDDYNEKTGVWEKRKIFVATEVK
# Excerpt: The catalytically active recombinant sortase A enzyme used for these studies was expressed with an N-terminal deletion of 59 amino acid residues (SrtAΔNS9, residues 60-206). The first step included high-throughput screening of potent S. aereus SrtA inhibitors and selection of new antibacterial substances as sortase A inhibitors. In order to identify potent inhibitors of S. aureus sortase A, a high-throughput screening (HTS) of a diverse library of 50,000 drug-like low-molecular weight molecules was performed, which led to the identification of novel promising drug candidates.
# (§1) These assays included determination of 50% SrtA inhibition concentration (IC50) of the newly synthesized derivative in dose-response experiments using the recombinant sortase A enzyme incubated with FRET peptide substrate containing the LPETG motif, minimal inhibitory concentration (MIC) test with two staphylococcal species to measure the antimicrobial efficacy of the new inhibitory molecule, and toxicity test using a normal mouse embryonic fibroblasts cell line NIH/3T3 to determine the cell growth IC50 inhibitory concentration.
# Values are means ±SD (n = 5).
# Staphylococcus aureus = assay: MIC test, broth dilution micromethod; assay type: cell-based; conditions: for MIC: Staphylococcus aureus, 24 hours at 37 °C, complete inhibition of cell growth, read-out: MIC, S.aureus
# Procedure: as §1
# (§2) The MIC values of test compounds that inhibited cell growth of Gram-positive Staphylococcus aureus and S. epidermidis were determined by broth dilution micromethod. A series of solutions with a range from 0.1 µg/ml to 400 µg/ml were made in using a logarithmical phase culture with OD600 = 0.1 (corresponds to ∼1.2 x 10^8 CFU/ml in 96-well plate standard. The plate was incubated at 37 °C for 24 hours and growth was assayed with a microplate reader by monitoring the absorption at 600 nm. All experiments were done in triplicate, and repeated three times.
# S. epidermidis = assay: MIC test, broth dilution micromethod; assay type: cell-based; conditions: Staphylococcus epidermidis; 24 hours at 37 °C, complete inhibition of cell growth
# Procedure: as §1, §2
# NIH/3T3 cells = assay: Cytotoxicity (MTT cell growth inhibition) test; assay type: cell-based; conditions: Mus musculus, read-out: 50% NIH/3T3 cell growth inhibition concentration, (IC50)
# Procedure: as §1
# The growth inhibitory effect of the newly synthesized compound was studied on NIH/3T3mouse fibroblast cell line. NIH/3T3 cells were seeded into 96-well microplates with initial density of 1x10^4 cells per well in DMEM culture medium with 10% FCS. After 24 hours of incubation, cells were exposed to a graded series of concentrations of chemical compounds for additional 48 hours. The cell medium was removed and 100 µl of fresh culture medium without phenol red and 1 mM MTT solution was added to each well. After 3 hours of incubation, an equal volume of 1% SDS-HCl solution was added and plates were incubated for additional 4 hours. Absorbance was measured at 570 nm and the data were fitted to a four parameter variable slope equation to determine the IC50 value. […]
# SrtA = molecular target: T2, SrtA (Staphylococcus aureus, UniProt Q2FV99); assay: Binding to SrtA monitored by 2D [15N,1H]-HSQC NMR spectroscopy, with dialysis; conditions: 0.3 mM (1.0 equivalents) inhibitor, after dialysis against NMR sample buffer
# T2 construct: expressed with an N-terminal deletion of 59 amino acid residues (SrtAΔNS9, residues 60-206); made in house
# T2 sequence (Q2FV99 60-206): as above
# Excerpt: • Fig. 1 - represents the binding of a selected inhibitor N-(adamantan-1-yl)-2-(3-oxo-2,3-dihydro-1,2-benzothiazol-2-yl)acetamide to SrtA monitored by 2D [^15N,^1H]-HSQC NMR spectroscopy. (a) Spectrum of SrtA in absence of inhibitor. […] (a) SrtA active site after modification by inhibitor. The inhibitor (in cyan) and near-by side chains of SrtA are shown with sticks and labeled. Side chains are colored according to their type: hydrophobic in yellow, negatively charged in red, positively charged in blue and hydrophilic in grey. Hydrogens are omitted for clarity. […] (c) Molecular surface representation of SrtA in complex with inhibitor. It can be seen in the figure that the inhibitor occupies almost all volume of the substrate pocket, the majority of interactions are hydrophobic and hydrogen bond is at the R139.
# Determination of the complex structure of selected inhibitor and sortase enzyme was performed by using the nuclear magnetic resonance (NMR) spectroscopy methods. The collected NMR data allowed to specify the structure of inhibitory complexes.
# To verify that the selected inhibitor can react with a cysteine thiol (such as the SrtA active site C 184) we performed a reaction with cysteine in the NMR tube and observed the formation of a covalent adduct (Figure 2). The chemical structure of the product was verified using proton 1D and 2D NMR methods.
SMILES,IC50 (S. aureus sortase A),MIC (Staphylococcus aureus),MIC values of the new compound in comparison to the initial hit molecule (Staphylococcus aureus; average over S. aureus and S. epidermidis),MIC (S. epidermidis),"IC50 (NIH/3T3 cells; NIH3T3, 48 hours exposure, MTT, mean of three independent experiments ±SD)",binding of inhibitor to SrtA (reversibility) (SrtA),"IC50 (NIH/3T3 cells; NIH3T3, 48 h)"
O=C(Cn1sc2ccccc2c1=O)NNC(=O)C12CC3CC(CC(C3)C1)C2 [N'-(2-(3-oxobenzo[d]isothiazol-2(3H)-yl)acetyl)adamantane-1-carbohydrazide],3.8 µM,16 µg/mL,~10 fold,4 µg/mL,12.1 µg/mL,,
"O=C(Cn1sc2ccccc2c1=O)NC12CC3CC(CC(C3)C1)C2 [N-(adamantan-1-yl)-2-(3-oxo-2,3-dihydro-1,2-benzothiazol-2-yl)acetamide]",6.2 µM,1 µg/mL,,0.5 µg/mL,,irreversibly,1.3 µg/mL
